Results taken from paper PMC10931833, “Simultaneous Purification of Human Interferon Alpha-2b and Serum Albumin Using Bioprivileged Fluorinated Ionic Liquid-Based Aqueous Biphasic Systems” (International Journal of Molecular Sciences, 2024).

Legend:
FITC-BSA = target: T1, FITC-BSA (Bos taurus, UniProt P02769); assay: MST binding to FITC-BSA; design: species or system bovine; conditions: 0.41 μM BSA
T1 construct: purchased Millipore Sigma-Aldrich
Procedure: Herein, a commercial FITC labeling kit (Section 3) was used to fluorescently tag both IFN- α 2b and BSA. Typically, in the labeling process, one amine per protein is labeled, statistically distributing the position of the dye. […] The MST assay was performed as detailed in Section 3. The solutions were prepared with a concentration of IFN- α 2b and BSA fixed at 0.41 μ M in water. For IFN- α 2b a concentration of 2.7 μ M was also prepared to compare it with previous results on MST-binding between FILs and IFN- α 2b fluorescently labeled with a different tag. In each run of MST, a maximum concentration of a ligand is selected and consecutively diluted in sixteen capillaries. […] The experimental conditions of the MST assay only allow the study of the aggregation phenomenon individually for the first CAC.
Microscale thermophoresis (MST) measurements of the dye-labeled protein were used to conduct binding investigations. […] MST tests were conducted in a monolith NT.115 (blue/red) in accordance with the NanoTemper Technologies methodology. Medium MST power and 20% LED power (nano-blue) were set as the instrument’s default settings. For every MST measurement, a PBS buffer was used. The concentration of FITC-BSA was fixed at 0.4 μ M and FITC-IFN- α 2b was tested under two different concentrations (of 0.4 and 2.7 μ M). The ligand was used to create a set of 16 1:1 dilutions, with the starting ligand concentrations ranging from 10 to 400 mM. The typical parameters for MST traces were used for recording: […], 30 s MST power on, and 5 s MST power off. The data from three independently conducted pipetted experiments were examined using NanoTemper Technologies’ MO.Affinity Analysis software, version 2.3.

BSA [1] = target: T2, BSA (Bos taurus, UniProt P02769); assay: DSC thermal unfolding of BSA in water and aqueous solutions of ABS phase-forming components; format: physicochemical, bovine; conditions: for Tm / ΔG / ΔHcal / ΔHcal/ΔHvH / ΔHvH / ΔS: 1.0 mg/mL BSA
T2 construct: purchased Millipore Sigma-Aldrich
T2 sequence (P02769 25-607): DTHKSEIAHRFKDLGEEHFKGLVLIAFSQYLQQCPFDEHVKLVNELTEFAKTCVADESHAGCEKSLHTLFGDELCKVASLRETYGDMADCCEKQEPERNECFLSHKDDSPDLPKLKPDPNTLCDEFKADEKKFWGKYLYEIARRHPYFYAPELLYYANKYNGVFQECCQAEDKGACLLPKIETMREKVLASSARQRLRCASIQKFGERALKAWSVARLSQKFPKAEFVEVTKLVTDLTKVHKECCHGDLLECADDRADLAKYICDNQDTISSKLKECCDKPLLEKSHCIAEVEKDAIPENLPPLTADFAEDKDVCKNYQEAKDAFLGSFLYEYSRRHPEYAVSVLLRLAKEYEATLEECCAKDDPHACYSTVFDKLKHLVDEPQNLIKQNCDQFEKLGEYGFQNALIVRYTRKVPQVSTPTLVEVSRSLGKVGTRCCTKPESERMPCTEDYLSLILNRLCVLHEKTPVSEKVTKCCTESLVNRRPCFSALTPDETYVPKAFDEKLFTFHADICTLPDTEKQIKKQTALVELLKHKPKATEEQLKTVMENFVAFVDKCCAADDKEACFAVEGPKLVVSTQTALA
Procedure: Differential scanning calorimetry (DSC) measurements were performed with Nano DSC equipment, as detailed in Section 3, and used to determine the melting temperature (T m ) and enthalpy ( Δ H) of protein unfolding. DSC analyzes changes in the structure and stability of proteins as thermal transitions at the nanoscale. Using DSC to measure heat capacity as a function of the temperature of a well-studied protein such as BSA provides keen insights into folding and unfolding processes, as well as factors affecting stability. Due to the volume and concentration requirements of the DSC technique, and the constraints in available quantities of IFN- α 2b the DSC experiments on the ABS phase-forming components’ effect on the structural properties of proteins were attained only for BSA.
The T m of BSA, which corresponds to the thermal unfolding transition midpoint, was measured in the absence and presence of the ABS phase-forming components at increasing concentrations (see Figure 1 and Table 2).

BSA [2] = target: T2, BSA; assay: Far-UV CD secondary structure of BSA (CONTIN-LL deconvolution); format: physicochemical, bovine; design: Regular Alpha Helix / Distorted Alpha Helix / Regular Beta Sheet / Distorted Beta Sheet / Turns / Unordered: unit not given here; conditions: 1.0 mg/mL BSA, 25 °C
Excerpt: Circular dichroism (CD) is widely used to study the secondary structures of proteins, peptides and nucleic acids, because it requires a low concentration sample, is a nondestructive method, allows studying a wide range of variables (temperature, pH, etc.), and provides information on the effect of added ligands on protein folding and interactions. Far-UV (190–260 nm) CD spectroscopy was used to assess the IFN- α 2b and BSA secondary structure since the spectra are characteristic of different structural elements.
Circular dichroism (CD) spectra were collected in a 10 mm quartz cuvette and a Chirascan spectropolarimeter (Applied Photophysics, UK) at room temperature. All CD spectra were recorded in the far-UV range of 190 to 260 nm at scan rates of 50 nm/min, with 4 accumulations, and a response time of 3 s; CD spectra were collected. For each CD experiment, two distinct duplicates were acquired and combined. BSA was fixed at 1 mg/mL, solvent concentrations ranging from 0.1 to 200 mM were used, and the spectra were translated to MRE after being expressed in terms of molar ellipticity. Spectral deconvolution was carried out with DichroWeb using the CONTIN-LL deconvolution algorithm with the SMP180 reference set.

BSA [3] = target: T2, BSA; assay: CD thermal unfolding (Tm) of BSA; format: physicochemical, bovine; conditions: 1.0 mg/ml BSA, 200 mM component aqueous solution
Excerpt: The thermal stability assessed by far-UV CD is solely determined through the thermal decay of the alpha-helical structure.

T1 sequence (P02769 25-607): as above

- Kd (FITC-BSA; max. conc. first capillary 12.5 mM (monomer)): no binding detected
- Kd (FITC-BSA; max. conc. first capillary 400 mM (monomer)): no binding detected
- Tm (BSA [1]; 0.1 mM component): 79.97 °C
- ΔG (BSA [1]; 0.1 mM component): 19.6 kcal/mol
- ΔHcal (BSA [1]; 0.1 mM component): 125 kcal/mol
- ΔHcal/ΔHvH (BSA [1]; 0.1 mM component): 0.968
- ΔHvH (BSA [1]; 0.1 mM component): 129.2 kcal/mol
- ΔS (BSA [1]; 0.1 mM component): 1.480 KJ/(mol.K)
- Tm (BSA [1]; 1 mM component): 81.63 °C
- ΔG (BSA [1]; 1 mM component): 26.77 kcal/mol
- ΔHcal (BSA [1]; 1 mM component): 167.4 kcal/mol
- ΔHcal/ΔHvH (BSA [1]; 1 mM component): 0.980
- ΔHvH (BSA [1]; 1 mM component): 170.8 kcal/mol
- ΔS (BSA [1]; 1 mM component): 1.974 KJ/(mol.K)
- Tm (BSA [1]; 5 mM component): 80.68 °C
- ΔG (BSA [1]; 5 mM component): 20.87 kcal/mol
- ΔHcal (BSA [1]; 5 mM component): 131.5 kcal/mol
- ΔHcal/ΔHvH (BSA [1]; 5 mM component): 1.018
- ΔHvH (BSA [1]; 5 mM component): 129.1 kcal/mol
- ΔS (BSA [1]; 5 mM component): 1.552 KJ/(mol.K)
- Tm (BSA [1]; 10 mM component): 80.77 °C
- ΔG (BSA [1]; 10 mM component): 25.17 kcal/mol
- ΔHcal (BSA [1]; 10 mM component): 159 kcal/mol
- ΔHcal/ΔHvH (BSA [1]; 10 mM component): 1.046
- ΔHvH (BSA [1]; 10 mM component): 151.9 kcal/mol
- ΔS (BSA [1]; 10 mM component): 1.878 KJ/(mol.K)
- effect on BSA Tm (DSC) (BSA [1]; tested concentration range vs water): maintained
- Distorted Alpha Helix (BSA [2]; 0.1 mM component): 0.205
- Distorted Beta Sheet (BSA [2]; 0.1 mM component): 0.026
- Regular Alpha Helix (BSA [2]; 0.1 mM component): 0.391
- Regular Beta Sheet (BSA [2]; 0.1 mM component): 0.000
- Turns (BSA [2]; 0.1 mM component): 0.136
- Unordered (BSA [2]; 0.1 mM component): 0.242
- Distorted Alpha Helix (BSA [2]; 1 mM component): 0.216
- Distorted Beta Sheet (BSA [2]; 1 mM component): 0.023
- Regular Alpha Helix (BSA [2]; 1 mM component): 0.428
- Regular Beta Sheet (BSA [2]; 1 mM component): 0.000
- Turns (BSA [2]; 1 mM component): 0.135
- Unordered (BSA [2]; 1 mM component): 0.198
- Distorted Alpha Helix (BSA [2]; 5 mM component): 0.225
- Distorted Beta Sheet (BSA [2]; 5 mM component): 0.022
- Regular Alpha Helix (BSA [2]; 5 mM component): 0.427
- Regular Beta Sheet (BSA [2]; 5 mM component): 0.000
- Turns (BSA [2]; 5 mM component): 0.136
- Unordered (BSA [2]; 5 mM component): 0.19
- Distorted Alpha Helix (BSA [2]; 25 mM component): 0.196
- Distorted Beta Sheet (BSA [2]; 25 mM component): 0.024
- Regular Alpha Helix (BSA [2]; 25 mM component): 0.333
- Regular Beta Sheet (BSA [2]; 25 mM component): 0.004
- Turns (BSA [2]; 25 mM component): 0.131
- Unordered (BSA [2]; 25 mM component): 0.312
- Distorted Alpha Helix (BSA [2]; 55 mM component): 0.211
- Distorted Beta Sheet (BSA [2]; 55 mM component): 0.026
- Regular Alpha Helix (BSA [2]; 55 mM component): 0.412
- Regular Beta Sheet (BSA [2]; 55 mM component): 0.000
- Turns (BSA [2]; 55 mM component): 0.138
- Unordered (BSA [2]; 55 mM component): 0.214
- Distorted Alpha Helix (BSA [2]; 90 mM component): 0.211
- Distorted Beta Sheet (BSA [2]; 90 mM component): 0.025
- Regular Alpha Helix (BSA [2]; 90 mM component): 0.4
- Regular Beta Sheet (BSA [2]; 90 mM component): 0.000
- Turns (BSA [2]; 90 mM component): 0.137
- Unordered (BSA [2]; 90 mM component): 0.227
- Distorted Alpha Helix (BSA [2]; 120 mM component): 0.212
- Distorted Beta Sheet (BSA [2]; 120 mM component): 0.025
- Regular Alpha Helix (BSA [2]; 120 mM component): 0.415
- Regular Beta Sheet (BSA [2]; 120 mM component): 0.000
- Turns (BSA [2]; 120 mM component): 0.135
- Unordered (BSA [2]; 120 mM component): 0.213
- Distorted Alpha Helix (BSA [2]; 200 mM component): 0.216
- Distorted Beta Sheet (BSA [2]; 200 mM component): 0.024
- Regular Alpha Helix (BSA [2]; 200 mM component): 0.436
- Regular Beta Sheet (BSA [2]; 200 mM component): 0.000
- Turns (BSA [2]; 200 mM component): 0.136
- Unordered (BSA [2]; 200 mM component): 0.189
- Tm, Ellipticity 192 nm (BSA [3]): 70.098 °C
- Tm, Ellipticity 208 nm (BSA [3]): 73.063 °C
- Tm, Ellipticity 222 nm (BSA [3]): 71.977 °C
Structure (SMILES): OC[C@H]1O[C@@](CO)(O[C@H]2O[C@H](CO)[C@@H](O)[C@H](O)[C@H]2O)[C@@H](O)[C@@H]1O [Sucrose, sucrose]
